Data as given in patent EP0414533A1, “Use of iodopropargyl esters of alpha-amino acid derivatives as antimicrobial agents” (ROHM AND HAAS COMPANY, priority 1989, dated 1991).
In brackets after ≈: the same amount, converted by molar mass. Counter-ions that a name gives are not always drawn. Like-named read-outs stand apart in the source and are kept apart here.

Assays:
Aspergillus niger (ANIG) = assay: Minimum inhibitory concentration (MIC), broth two-fold serial dilution test; assay type: cell-based; conditions: Aspergillus niger, Table IIIc, iodopropargyl esters of peptides
[1] = tested on: Aureobasidium pullulans (APUL); assay: as above; assay type: cell-based; conditions: Aureobasidium pullulans, Table IIIc, iodopropargyl esters of peptides
Botrytis cinerea (BOC) = assay: In-vitro plant fungicide test; assay type: cell-based; conditions: Botrytis cinerea, 25 ppm; Table IVa; *=Phytotoxic; read-out: % Control at 25 ppm BOC
Fusarium roseum (FUS) = assay: In-vitro plant fungicide test; assay type: cell-based; conditions: Fusarium sambucinum, read-out: % Control at 25 ppm FUS, 25 ppm; Table IVa; *=Phytotoxic
[2] = tested on: Cochliobolus sativus (HEL); assay: In-vitro plant fungicide test; assay type: cell-based; conditions: Bipolaris sorokiniana, 25 ppm; Table IVa; *=Phytotoxic; read-out: % Control at 25 ppm HEL
[3] = tested on: Phytophthora capsici (PHY); assay: In-vitro plant fungicide test; assay type: cell-based; conditions: Phytophthora capsici; 25 ppm; Table IVa; read-out: % Control at 25 ppm PHY
Piricularia oryzae (PIR) = assay: microbe, parasite or virus in culture; assay type: cell-based; conditions: read-out: % Control at 25 ppm PIR
Pythium ultimum (PYU) = assay: In-vitro plant fungicide test; assay type: cell-based; conditions: Globisporangium ultimum; 25 ppm; Table IVa; read-out: % Control at 25 ppm PYU
Rhizoctonia solani (RHI) = assay: In-vitro plant fungicide test; assay type: cell-based; conditions: Rhizoctonia solani; 25 ppm; Table IVa; read-out: % Control at 25 ppm RHI
Septoria nodorum (SEP) = assay: In-vitro plant fungicide test; assay type: cell-based; conditions: Parastagonospora nodorum, 25 ppm; Table IVa; read-out: % Control at 25 ppm SEP
[4] = tested on: Xanthomonas campestris (XAN); assay: In-vitro plant fungicide test; assay type: cell-based; conditions: Xanthomonas campestris; 25 ppm; Table IVa; read-out: % Control at 25 ppm XAN
THREE FUNGI = assay: MIC test against three fungi in Mycophile Broth, pH 5.0, read after 8 days (Table VII); assay type: cell-based; conditions: 192 h
[5] = tested on: Pseudomonas fluorescens (PSFL); assay: Minimum inhibitory concentration (MIC), broth two-fold serial dilution test; conditions: Pseudomonas fluorescens, read-out: MIC (G-) PSFL, M9G (minimal salts media with glucose); Table IIIc, iodopropargyl esters of peptides
[6] = tested on: Pseudomonas aerugenosa (PSAE); assay: as above; conditions: Pseudomonas, read-out: MIC (G-) PSAE, M9G (minimal salts media with glucose); Table IIIc, iodopropargyl esters of peptides
Description: (§1) When the test is ready to be done, each vessel in the dilution series, except the first vessel, contains an equal volume of compound free broth. The first vessel contains twice the volume of broth with the starting concentration of test compound. One half of the broth from the first vessel is transferred to the second vessel. After being mixed, one half the resulting volume is removed from the second vessel and transferred to the third vessel. The entire cycle is repeated sufficiently to give a series of concentrations amounting to 500, 250, 125, 63, 31, 16, 8, and 4 ppm (or 100, 50, 25, 12.5, 6.2, 3.1, 1.6, and 0.8), respectively.
(§2) Each vessel is then inoculated with a cell suspension of the appropriate test organism. Bacteria are grown in broth, fungi on agar slants for a time and at a temperature appropriate to the species being tested, and algae are a mixture of green algae and blue-green bacteria grown in a nutrient media. At the end of the growth period, in the case of bacteria, the broth is vortexed to disperse the cells.
(§3) The vessels are then incubated at the appropriate temperature. After the incubation, the vessels are examined for growth/no growth.

Escherichia coli (ECOL) = assay: as above; conditions: Escherichia coli, read-out: MIC (G-) ECOL, M9G (minimal salts media with glucose); Table IIIc, iodopropargyl esters of peptides
Description: as §1, §2, §3

[7] = tested on: Staphylococcus aureus (SAUR); assay: as above; conditions: Staphylococcus aureus, read-out: MIC (G+) SAUR, M9G (minimal salts media with glucose); Table IIIc, iodopropargyl esters of peptides
Description: as §1, §2, §3

[8] = M9G (minimal salts media with glucose), read-out: MIC (F) ANIG
[9] = M9G (minimal salts media with glucose), read-out: MIC (F) APUL
[10] = Aspergillus niger, serial dilutions from 50 ppm, read after 8 days of incubation, read-out: MIC ANIG
[11] = Aureobasidium pullulans, serial dilutions from 50 ppm, read after 8 days of incubation, read-out: MIC APUL
[12] = Gloeophyllum trabeum, serial dilutions from 50 ppm, read after 8 days of incubation, read-out: MIC GTRA
[13] = read-out: MIC (F) ANIG, M9G (minimal salts media with glucose)
[14] = read-out: MIC (F) APUL, M9G (minimal salts media with glucose)
[15] = Aspergillus niger, pH 5, read-out: MIC ANIG, Aspergillus niger, serial dilutions from 50 ppm, read after 8 days of incubation
[16] = Aureobasidium pullulans, pH 5, read-out: MIC APUL, Aureobasidium pullulans, serial dilutions from 50 ppm, read after 8 days of incubation
[17] = Gloeophyllum trabeum, pH 5, read-out: MIC GTRA, Gloeophyllum trabeum, serial dilutions from 50 ppm, read after 8 days of incubation

| SMILES | MIC (Aspergillus niger (ANIG); [8]) | MIC [1, 9] | inhibition of growth at 25 ppm (Botrytis cinerea (BOC)) | inhibition of growth at 25 ppm (Fusarium roseum (FUS)) | inhibition of growth at 25 ppm [2] | inhibition of growth at 25 ppm [3] | inhibition of growth at 25 ppm (Piricularia oryzae (PIR)) | inhibition of growth at 25 ppm (Pythium ultimum (PYU)) | inhibition of growth at 25 ppm (Rhizoctonia solani (RHI)) | inhibition of growth at 25 ppm (Septoria nodorum (SEP)) | inhibition of growth at 25 ppm [4] | MIC (THREE FUNGI; [10]) | MIC (THREE FUNGI; [11]) | MIC (THREE FUNGI; [12]) | MIC [5] | MIC [6] | MIC (Escherichia coli (ECOL)) | MIC [7] | MIC (Aspergillus niger (ANIG); [13]) | MIC [1, 14] | further results |
| --- | --- | --- | --- | --- | --- | --- | --- | --- | --- | --- | --- | --- | --- | --- | --- | --- | --- | --- | --- | --- | --- |
| C[C@H](NC(=O)OC(C)(C)C)C(=O)NCC(=O)OCC#CI [Compound 12, N-t-butoxycarbonyl-L-alanylglycine iodopropargyl ester] | 6 µg/mL | < 0.8 µg/mL | 0% | 0% | 0% | 100% | 100% | 100% | 100% | 95% | 0% | 25 µg/mL (≈ 60.9 µM) | > 50 µg/mL | 6.2 µg/mL (≈ 15.1 µM) | 50 µg/mL | 50 µg/mL | 50 µg/mL | 50 µg/mL |  |  |  |
| C[C@H](NC(=O)OC(C)(C)C)C(=O)N[C@@H](C)C(=O)OCC#CI [Compound 13, N-t-butoxycarbonyl-L-alanyl-L-alanine iodopropargyl ester] | < 0.8 µg/mL | < 0.8 µg/mL | 50% | 100% | 100% | 100% | 100% | 100% | 100% | 100% | 0% | 25 µg/mL (≈ 58.9 µM) | 50 µg/mL (≈ 118 µM) | 6.2 µg/mL (≈ 14.6 µM) | 50 µg/mL | 50 µg/mL | 100 µg/mL | 50 µg/mL |  |  |  |
| C[C@H](NC(=O)OC(C)(C)C)C(=O)N[C@@H](COCc1ccccc1)C(=O)OCC#CI [Compound 14, N-t-butoxycarbonyl-L-alanyl-O-benzyl-L-serine iodopropargyl ester] | 6 µg/mL | < 0.8 µg/mL | 0% | 100% | 50% | 75% | 100% | 0% | 90% | 0% | 0% | 50 µg/mL (≈ 94.3 µM) | > 50 µg/mL | 12.5 µg/mL (≈ 23.6 µM) | 100 µg/mL | 50 µg/mL | > 100 µg/mL | 100 µg/mL |  |  |  |
| C[C@H](NC(=O)OC(C)(C)C)C(=O)N[C@@H](CSCc1ccccc1)C(=O)OCC#CI [Compound 15, N-t-butoxycarbonyl-L-alanyl-S-benzyl-L-cysteine iodopropargyl ester] | 6 µg/mL | 1.6 µg/mL | 0% | 100% | 0% | 100% | 100% | 100% | 100% | 100% | 0% | > 50 µg/mL | > 50 µg/mL | 50 µg/mL (≈ 91.5 µM) | > 100 µg/mL | > 100 µg/mL | > 100 µg/mL | > 100 µg/mL |  |  |  |
| C[C@H](NC(=O)OC(C)(C)C)C(=O)N[C@H](C(=O)OCC#CI)[C@@H](C)OCc1ccccc1 [Compound 16, N-t-butoxycarbonyl-L-alanyl-O-benzyl-L-threonine iodopropargyl ester] | 13 µg/mL | < 0.8 µg/mL | 0% | 0% | 0% | 0% | 100% | 100% | 100% | 100% | 0% | > 50 µg/mL | > 50 µg/mL | 25 µg/mL (≈ 45.9 µM) | > 100 µg/mL | > 100 µg/mL | > 100 µg/mL | 6 µg/mL |  |  |  |
| C[C@H](N)C(=O)NCC(=O)OCC#CI [Compound 17, L-alanylglycine iodopropargyl ester trifluoroacetate] |  |  | 75% | 100% | 50% | 100% | 100% | 100% | 100% | 75% | 0% |  |  |  | 100 µg/mL | 100 µg/mL | 100 µg/mL | 100 µg/mL | < 0.8 µg/mL | < 0.8 µg/mL | MIC (THREE FUNGI; [15]): 12.5 µg/mL; MIC (THREE FUNGI; [16]): 50 µg/mL; MIC (THREE FUNGI; [17]): 25 µg/mL |
| C[C@H](N)C(=O)N[C@@H](C)C(=O)OCC#CI [Compound 18, L-alanyl-L-alanine iodopropargyl ester trifluoroacetate] |  |  | 50% | 100% | 100% | 100% | 100% | 100% | 100% | 100% | 0% |  |  |  | 100 µg/mL | 100 µg/mL | 100 µg/mL | > 100 µg/mL | < 0.8 µg/mL | < 0.8 µg/mL | MIC (THREE FUNGI; [15]): 12.5 µg/mL; MIC (THREE FUNGI; [16]): 50 µg/mL; MIC (THREE FUNGI; [17]): 12.5 µg/mL |
| C[C@H](N)C(=O)N[C@@H](CSCc1ccccc1)C(=O)OCC#CI [Compound 20, L-alanyl-S-benzyl-L-cysteine iodopropargyl ester trifluoroacetate] |  |  | 0% | 100% | 100% | 100% | 100% | 100% | 100% | 100% | 0% |  |  |  | 100 µg/mL | 100 µg/mL | 100 µg/mL | 100 µg/mL | < 0.8 µg/mL | < 0.8 µg/mL | MIC (THREE FUNGI; [15]): 50 µg/mL; MIC (THREE FUNGI; [16]): 50 µg/mL; MIC (THREE FUNGI; [17]): 12.5 µg/mL |
| C[C@H](N)C(=O)N[C@H](C(=O)OCC#CI)[C@@H](C)OCc1ccccc1 [Compound 21, L-alanyl-O-benzyl-L-threonine iodopropargyl ester trifluoroacetate] |  |  | 0% | 0% | 0% | 100% | 100% | 100% | 100% | 100% | 0% |  |  |  | 100 µg/mL | 100 µg/mL | 100 µg/mL | > 100 µg/mL | < 0.8 µg/mL | 1.6 µg/mL | MIC (THREE FUNGI; [15]): 50 µg/mL; MIC (THREE FUNGI; [16]): > 50 µg/mL; MIC (THREE FUNGI; [17]): 50 µg/mL |
